Measurements as given in patent US12227490B2, “Cereblon binding compounds, compositions thereof, and methods of treatment therewith” (Celgene Corporation, priority 2020, dated 2025).
Where a name gives a salt, the structure may show the parent alone.

Target: T1, AR (androgen receptor) protein in VCaP cells (Homo sapiens, UniProt P10275)
T1 construct: endogenous in cells; host or cells: VCaP cells
T1 sequence (P10275 1-920): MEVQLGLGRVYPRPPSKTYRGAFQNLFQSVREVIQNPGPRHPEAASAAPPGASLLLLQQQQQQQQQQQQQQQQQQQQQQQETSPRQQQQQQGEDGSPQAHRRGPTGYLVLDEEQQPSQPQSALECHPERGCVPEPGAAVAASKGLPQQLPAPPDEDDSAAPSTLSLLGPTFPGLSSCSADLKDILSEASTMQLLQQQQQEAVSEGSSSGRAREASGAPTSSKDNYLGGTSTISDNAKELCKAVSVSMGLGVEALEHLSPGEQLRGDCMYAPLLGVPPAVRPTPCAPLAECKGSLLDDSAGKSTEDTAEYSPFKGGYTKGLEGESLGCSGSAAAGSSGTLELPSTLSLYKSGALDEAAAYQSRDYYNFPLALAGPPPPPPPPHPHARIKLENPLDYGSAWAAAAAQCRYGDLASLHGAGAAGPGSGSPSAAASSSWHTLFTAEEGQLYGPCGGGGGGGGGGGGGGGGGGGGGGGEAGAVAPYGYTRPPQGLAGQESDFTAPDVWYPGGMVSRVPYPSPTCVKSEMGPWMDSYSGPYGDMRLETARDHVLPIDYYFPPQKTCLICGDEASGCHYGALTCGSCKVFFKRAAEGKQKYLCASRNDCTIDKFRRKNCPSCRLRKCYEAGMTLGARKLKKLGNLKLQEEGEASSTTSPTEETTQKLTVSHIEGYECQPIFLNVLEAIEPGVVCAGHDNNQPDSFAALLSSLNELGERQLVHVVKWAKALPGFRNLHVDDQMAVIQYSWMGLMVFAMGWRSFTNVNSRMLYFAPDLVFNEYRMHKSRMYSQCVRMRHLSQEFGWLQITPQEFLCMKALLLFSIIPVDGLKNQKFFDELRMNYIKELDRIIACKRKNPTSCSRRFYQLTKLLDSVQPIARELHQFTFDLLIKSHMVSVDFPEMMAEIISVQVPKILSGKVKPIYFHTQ
Assay: VCAP AR Degradation Assay
Format: cell-based
Conditions: 24 h, AR ELISA; for DC50: concentration of compound when AR level = 50% of DMSO control; for remaining activity at up to 5 µM: top concentration 5 μM, read-out: Y (lowest measured AR level normalized to DMSO control, AR degradation efficiency)
Protocol: VCAP AR Degradation Assay. Test compounds were pre-dispensed into a Corning CellBind 96-well clear bottom plate (Cat #3300) using an acoustic dispenser to make a 10-point concentration series at 1:3 dilution for each compound. The final top concentration of each compound was 5 μM. DMSO at a final concentration of 0.1% was used as a control. VCaP cells cultured in DMEM with 8% fetal bovine serum (FBS) were seeded at 50K cells per well in a 200 μL volume into the compound plate and incubated at 37° C. in a CO2 incubator for 24 h. The medium was carefully removed from the cells and the plate was placed on ice. One hundred μL of ice-cold 1× cell lysis buffer from Cell Signaling Technologies (Cat #9803) was added to each well of the cells and the plate was incubated at 4° C. on a shaker for 1 h. Fifteen μL of cell lysate was used for AR ELISA detection using a PathScan Total Sandwich AR ELISA kit (Cell Signaling Technology, Cat #12580). AR levels in compound-treated wells were normalized to that of DMSO control and expressed as percent of control (PoC) (y). A Four Parameter Logistic Model (Sigmoidal Dose-Response Model) was used to determine the compound's DC50, and EC50, using the following equation: y=(A+((B−A)/(1+((C/x)^D)))) • A=YMin (lowest AR level normalized to DMSO control in response to compound treatment, as determined by curve fit) • B=YMax (maximum AR level as determined by curve fit) • C=EC50 • D=Hill Slope • x=compound concentration • EC50=the concentration of compound when y=(YMax−YMin)/2 • DC50=the concentration of the compound when y=50% of DMSO control (50% AR degradation) • y=AR protein level normalized to DMSO control
The lowest measured AR level normalized to DMSO control in response to compound treatment, termed Y value, was used to characterize the compound-mediated AR degradation efficiency.

| SMILES | DC50 | remaining activity at up to 5 µM |
| --- | --- | --- |
| C[C@@H]1CN(CCO[C@H]2CC[C@H](N3C(=S)N(c4ccc(C#N)c(C(F)(F)F)c4)C(=O)C3(C)C)CC2)C[C@H](C)N1CC(=O)Nc1cccc2c(C3CCC(=O)NC3=O)nn(C)c12 (stereo partly drawn) [Cmpd 1, 2-((2S,6R)-4-(2-((trans-4-(3-(4-Cyano-3-(trifluoromethyl)phenyl)-5,5-dimethyl-4-oxo-2-thioxoimidazolidin-1-yl)cyclohexyl)oxy)ethyl)-2,6-dimethylpiperazin-1-yl)-N-(3-(2,6-dioxopiperidin-3-yl)-1-methyl-1H-indazol-7-yl)acetamide hydrochloride] | < 2 nM | 0 to 25% |
| C[C@@H]1CN(CCC[C@H]2CC[C@H](N3C(=S)N(c4ccc(C#N)c(C(F)(F)F)c4)C(=O)C3(C)C)CC2)C[C@H](C)N1CC(=O)Nc1cccc2c(C3CCC(=O)NC3=O)nn(C)c12 (stereo partly drawn) [Cmpd 2, 2-((2R,6S)-4-(3-(trans-4-(3-(4-cyano-3-(trifluoromethyl)phenyl)-5,5-dimethyl-4-oxo-2-thioxoimidazolidin-1-yl)cyclohexyl)propyl)-2,6-dimethylpiperazin-1-yl)-N-(3-(2,6-dioxopiperidin-3-yl)-1-methyl-1H-indazol-7-yl)acetamide hydrochloride] | 2 to 5 nM | 30 to 50% |
| C[C@@H]1CN(CCO[C@H]2CC[C@H](N3C(=S)N(c4ccc(C#N)c(Cl)c4)C(=O)C3(C)C)CC2)C[C@H](C)N1CC(=O)Nc1cccc2c(C3CCC(=O)NC3=O)nn(C)c12 (stereo partly drawn) [Cmpd 3, 2-((2R,6S)-4-(2-((trans-4-(3-(3-Chloro-4-cyanophenyl)-5,5-dimethyl-4-oxo-2-thioxoimidazolidin-1-yl)cyclohexyl)oxy)ethyl)-2,6-dimethylpiperazin-1-yl)-N-(3-(2,6-dioxopiperidin-3-yl)-1-methyl-1H-indazol-7-yl)acetamide hydrochloride] | < 2 nM | 0 to 25% |
| C[C@@H]1CN(CCO[C@H]2CC[C@H](N3C(=S)N(c4cnc(C#N)c(C(F)(F)F)c4)C(=O)C3(C)C)CC2)C[C@H](C)N1CC(=O)Nc1cccc2c(C3CCC(=O)NC3=O)nn(C)c12 (stereo partly drawn) [Cmpd 4, 2-((2R,6S)-4-(2-((trans-4-(3-(6-Cyano-5-(trifluoromethyl)pyridin-3-yl)-5,5-dimethyl-4-oxo-2-thioxoimidazolidin-1-yl)cyclohexyl)oxy)ethyl)-2,6-dimethylpiperazin-1-yl)-N-(3-(2,6-dioxopiperidin-3-yl)-1-methyl-1H-indazol-7-yl)acetamide hydrochloride] | < 2 nM | 25 to 30% |
| C[C@@H]1CN(CCCO[C@H]2CC[C@H](N3C(=S)N(c4ccc(C#N)c(Cl)c4)C(=O)C3(C)C)CC2)C[C@H](C)N1CC(=O)Nc1cccc2c(C3CCC(=O)NC3=O)nn(C)c12 (stereo partly drawn) [Cmpd 5, 2-((2R,6S)-4-(3-((trans-4-(3-(3-Chloro-4-cyanophenyl)-5,5-dimethyl-4-oxo-2-thioxoimidazolidin-1-yl)cyclohexyl)oxy)propyl)-2,6-dimethylpiperazin-1-yl)-N-(3-(2,6-dioxopiperidin-3-yl)-1-methyl-1H-indazol-7-yl)acetamide hydrochloride] | < 2 nM | 30 to 50% |
| C[C@@H]1CN(CCO[C@H]2CC[C@H](N3C(=S)N(c4cnc(C#N)c(Cl)c4)C(=O)C3(C)C)CC2)C[C@H](C)N1CC(=O)Nc1cccc2c(C3CCC(=O)NC3=O)nn(C)c12 (stereo partly drawn) [Cmpd 6, 2-((2R,6S)-4-(2-((trans-4-(3-(5-Chloro-6-cyanopyridin-3-yl)-5,5-dimethyl-4-oxo-2-thioxoimidazolidin-1-yl)cyclohexyl)oxy)ethyl)-2,6-dimethylpiperazin-1-yl)-N-(3-(2,6-dioxopiperidin-3-yl)-1-methyl-1H-indazol-7-yl)acetamide hydrochloride] | < 2 nM | 0 to 25% |
| C[C@@H]1CN(CCCO[C@H]2CC[C@H](N3C(=S)N(c4cnc(C#N)c(C(F)(F)F)c4)C(=O)C3(C)C)CC2)C[C@H](C)N1CC(=O)Nc1cccc2c(C3CCC(=O)NC3=O)nn(C)c12 (stereo partly drawn) [Cmpd 7, 2-((2R,6S)-4-(3-((trans-4-(3-(6-Cyano-5-(trifluoromethyl)pyridin-3-yl)-5,5-dimethyl-4-oxo-2-thioxoimidazolidin-1-yl)cyclohexyl)oxy)propyl)-2,6-dimethylpiperazin-1-yl)-N-(3-(2,6-dioxopiperidin-3-yl)-1-methyl-1H-indazol-7-yl)acetamide hydrochloride] | < 2 nM | 0 to 25% |
| C[C@@H]1CN(CCCO[C@H]2CC[C@H](N3C(=S)N(c4ccc(C#N)c(C(F)(F)F)c4)C(=O)C3(C)C)CC2)C[C@H](C)N1CC(=O)Nc1cccc2c(C3CCC(=O)NC3=O)nn(C)c12 (stereo partly drawn) [Cmpd 8, 2-((2R,6S)-4-(3-((trans-4-(3-(4-Cyano-3-(trifluoromethyl)phenyl)-5,5-dimethyl-4-oxo-2-thioxoimidazolidin-1-yl)cyclohexyl)oxy)propyl)-2,6-dimethylpiperazin-1-yl)-N-(3-(2,6-dioxopiperidin-3-yl)-1-methyl-1H-indazol-7-yl)acetamide] | < 2 nM | 25 to 30% |
| C[C@@H]1CN(CCC[C@H]2CC[C@H](N3C(=S)N(c4cnc(C#N)c(C(F)(F)F)c4)C(=O)C3(C)C)CC2)C[C@H](C)N1CC(=O)Nc1cccc2c(C3CCC(=O)NC3=O)nn(C)c12 (stereo partly drawn) [Cmpd 9, 2-((2R,6S)-4-(3-(trans-4-(3-(6-Cyano-5-(trifluoromethyl)pyridin-3-yl)-5,5-dimethyl-4-oxo-2-thioxoimidazolidin-1-yl)cyclohexyl)propyl)-2,6-dimethylpiperazin-1-yl)-N-(3-(2,6-dioxopiperidin-3-yl)-1-methyl-1H-indazol-7-yl)acetamide] | 2 to 5 nM | 25 to 30% |
| C[C@@H]1CN(CCC[C@H]2CC[C@H](N3C(=S)N(c4cnc(C#N)c(Cl)c4)C(=O)C3(C)C)CC2)C[C@H](C)N1CC(=O)Nc1cccc2c(C3CCC(=O)NC3=O)nn(C)c12 (stereo partly drawn) [Cmpd 10, 2-((2R,6S)-4-(3-(trans-4-(3-(5-Chloro-6-cyanopyridin-3-yl)-5,5-dimethyl-4-oxo-2-thioxoimidazolidin-1-yl)cyclohexyl)propyl)-2,6-dimethylpiperazin-1-yl)-N-(3-(2,6-dioxopiperidin-3-yl)-1-methyl-1H-indazol-7-yl)acetamide] | 2 to 5 nM | 30 to 50% |
| C[C@@H]1CN(CCC[C@H]2CC[C@H](N3C(=S)N(c4ccc(C#N)c(Cl)c4)C(=O)C3(C)C)CC2)C[C@H](C)N1CC(=O)Nc1cccc2c(C3CCC(=O)NC3=O)nn(C)c12 (stereo partly drawn) [Cmpd 11, 2-((2S,6R)-4-(3-(trans-4-(3-(3-Chloro-4-cyanophenyl)-5,5-dimethyl-4-oxo-2-thioxoimidazolidin-1-yl)cyclohexyl)propyl)-2,6-dimethylpiperazin-1-yl)-N-(3-(2,6-dioxopiperidin-3-yl)-1-methyl-1H-indazol-7-yl)acetamide] | 5 to 20 nM | 30 to 50% |
| C[C@@H]1C[C@@H](CCO[C@H]2CC[C@H](N3C(=S)N(c4ccc(C#N)c(C(F)(F)F)c4)C(=O)C3(C)C)CC2)C[C@H](C)N1CC(=O)Nc1cccc2c(C3CCC(=O)NC3=O)nn(C)c12 (stereo partly drawn) [Cmpd 12, 2-((2R,4s,6S)-4-(2-((trans-4-(3-(4-Cyano-3-(trifluoromethyl)phenyl)-5,5-dimethyl-4-oxo-2-thioxoimidazolidin-1-yl)cyclohexyl)oxy)ethyl)-2,6-dimethylpiperidin-1-yl)-N-(3-(2,6-dioxopiperidin-3-yl)-1-methyl-1H-indazol-7-yl)acetamide hydrochloride] | 2 to 5 nM | 0 to 25% |
